Results: US20190113503A1 (priority 2016, published 2019)

Columns and labels:
[1] = test system: KCB cells; conditions: 12-14 hours exposure
Method: The inventive cells were cryopreserved in a solution consisting of 10% DMSO and 10% FBS (fetal-bovine-serum) in MEM (minimum-essential-medium) at −80° C. The cells were thawed, washed with MEM and transferred to a 96 micro-well plate. In order to avoid evaporation of medium and consequent bias in MN frequency, the outer wells were left empty and the micro-well plate was sealed with duct tape. The inner wells were filled with cells in medium. The medium employed was composed of 86% MEM, 10% FBS, 1% non-essential-amino acids, 1% streptomycin (5 mg/ml in PBS—phosphate-buffered saline), 1% penicillin (3.125 mg/ml in PBS) and 1% amphotericin (250 μg/ml in deionized water). The cells were cultivated at 26° C. until they formed a moderately dense monolayer. The time until optimal monolayer density was achieved varied from two to five days.
Two untreated (i.e. not exposed to genotoxic compounds) columns served as internal (negative) controls of each plate.
It is possible, but not absolutely necessary, to replace the exposure medium by a recovery medium before the scoring. The scoring of micronuclei shall take place earliest 2 hours and latest 12 hours after the end of the exposure period.
In the basic test, a minimum of two pictures per well, corresponding to at least 24 pictures per concentration or control, were taken under a fluorescence microscope with an objective magnification of 40×. Normal cell nuclei, MN and fragmented nuclei in each picture were counted visually with aid of the “Cell Counter” plugin from the public domain image processing software “ImageJ”. Finally, the frequencies of MN per concentration were calculated.

[2] = test system: human lymphocytes; conditions: colchicine 0.06 μM, 24 hours; controls 1%; cited from earlier work
[3] = test system: human skin fibroblasts; conditions: colchicine 20 ng/mL (around 0.05 μM), 72 hours; background 0.2-0.9%; cited from earlier work
[4] = test system: carp (Cyprinus carpio) erythrocytes; conditions: fish injected with 0.4 mg colchicine/kg body weight; background 2%; cited from earlier work

Row | SMILES | concentrations at which a cytotoxic threshold may have been achieved (MN frequency diminishing or stabilizing) [1] | maximal MN frequency ([1]; colchicine at 0.375 μM) [%] | maximal frequency of fragmented nuclei ([1]; colchicine at 0.5 μM) [%] | MN frequency [2] | MN frequency [3] | MN frequency [4]
1 | O=[N+]([O-])c1cc[n+]([O-])c2ccccc12 [4NQO, 4-Nitroquinoline 1-oxide] | ≥ 600 nM |  |  |  |  | 
2 | COc1cc2c(c(OC)c1OC)-c1ccc(OC)c(=O)cc1[C@@H](NC(C)=O)CC2 [colchicine] | higher than 0.188 μM | 1.77 | 6.85 | around 15.2% | up to 4.7% | around 10%
